Laboratory results taken from ChEMBL document CHEMBL1147295, “Plant antimutagens, 6. Intricatin and intricatinol, new antimutagenic homoisoflavonoids from Hoffmanosseggia intricata” (J Nat Prod, 1989).

Key:
Salmonella typhimurium [1] = experiment: Antimutagenic activity in Salmonella Typhimurium T-100 assessed as inhibition of ethyl methanesulfonate-induced mutation at 75 ug/plate; format: functional, Salmonella enterica subsp. enterica serovar Typhimurium
Salmonella typhimurium [2] = experiment: Antimutagenic activity in Salmonella Typhimurium T-98 assessed as inhibition of acetylaminofluorene-induced mutation at 150 ug/plate; format: functional, Salmonella enterica subsp. enterica serovar Typhimurium
Salmonella typhimurium [3] = experiment: Antimutagenic activity in Salmonella Typhimurium T-98 assessed as inhibition of 2-aminoanthracene-induced mutation at 37.5 ug/plate; format: functional, Salmonella enterica subsp. enterica serovar Typhimurium
Salmonella typhimurium [4] = experiment: Antimutagenic activity in Salmonella Typhimurium T-98 assessed as inhibition of 2-aminoanthracene-induced mutation at 150 ug/plate; format: functional, Salmonella enterica subsp. enterica serovar Typhimurium
Salmonella typhimurium [5] = experiment: Antimutagenic activity in Salmonella Typhimurium T-98 assessed as inhibition of acetylaminofluorene-induced mutation at 300 ug/plate; format: functional, Salmonella enterica subsp. enterica serovar Typhimurium
Salmonella typhimurium [6] = experiment: Antimutagenic activity in Salmonella Typhimurium T-98 assessed as inhibition of acetylaminofluorene-induced mutation at 75 ug/plate; format: functional, Salmonella enterica subsp. enterica serovar Typhimurium
Salmonella typhimurium [7] = experiment: Toxicity to Salmonella Typhimurium at 0.6 mg/plate; format: organism-based, Salmonella enterica subsp. enterica serovar Typhimurium; conditions: in vivo
Salmonella typhimurium [8] = experiment: Antimutagenic activity in Salmonella Typhimurium T-98 assessed as inhibition of 2-aminoanthracene-induced mutation at 300 ug/plate; format: functional, Salmonella enterica subsp. enterica serovar Typhimurium
Salmonella typhimurium [9] = experiment: Antimutagenic activity in Salmonella Typhimurium T-100 assessed as inhibition of ethyl methanesulfonate-induced mutation at 37.5 ug/plate; format: functional, Salmonella enterica subsp. enterica serovar Typhimurium
Salmonella typhimurium [10] = experiment: Toxicity to Salmonella Typhimurium at 0.3 mg/plate; format: organism-based, Salmonella enterica subsp. enterica serovar Typhimurium; conditions: in vivo
Salmonella typhimurium [11] = experiment: Antimutagenic activity in Salmonella Typhimurium T-100 assessed as inhibition of ethyl methanesulfonate-induced mutation at 150 ug/plate; format: functional, Salmonella enterica subsp. enterica serovar Typhimurium
Salmonella typhimurium [12] = experiment: Antimutagenic activity in Salmonella Typhimurium T-98 assessed as inhibition of 2-aminoanthracene-induced mutation at 75 ug/plate; format: functional, Salmonella enterica subsp. enterica serovar Typhimurium
Salmonella typhimurium [13] = experiment: Antimutagenic activity in Salmonella Typhimurium T-100 assessed as inhibition of ethyl methanesulfonate-induced mutation at 300 ug/plate; format: functional, Salmonella enterica subsp. enterica serovar Typhimurium
Salmonella typhimurium [14] = experiment: Antimutagenic activity in Salmonella Typhimurium T-98 assessed as inhibition of acetylaminofluorene-induced mutation at 37.5 ug/plate; format: functional, Salmonella enterica subsp. enterica serovar Typhimurium

| Compound | inhibition (INH) (Salmonella typhimurium [1]) [%] | inhibition (INH) (Salmonella typhimurium [2]) [%] | inhibition (INH) (Salmonella typhimurium [3]) [%] | inhibition (INH) (Salmonella typhimurium [4]) [%] | inhibition (INH) (Salmonella typhimurium [5]) [%] | inhibition (INH) (Salmonella typhimurium [6]) [%] | Activity (Salmonella typhimurium [7]) | inhibition (INH) (Salmonella typhimurium [8]) [%] | inhibition (INH) (Salmonella typhimurium [9]) [%] | Activity (Salmonella typhimurium [10]) | inhibition (INH) (Salmonella typhimurium [11]) [%] | inhibition (INH) (Salmonella typhimurium [12]) [%] | inhibition (INH) (Salmonella typhimurium [13]) [%] | inhibition (INH) (Salmonella typhimurium [14]) [%] |
| --- | --- | --- | --- | --- | --- | --- | --- | --- | --- | --- | --- | --- | --- | --- |
| COc1ccc(/C=C2\COc3c(ccc(O)c3O)C2=O)cc1 [INTRICATINOL] | 74 | 54 | 8 | 57 | 70 | 48 | Non-toxic | 87 | 30 | Non-toxic | 82 | 36 | 74 | 26 |
| COc1ccc(/C=C2\COc3c(ccc(OC)c3O)C2=O)cc1 [INTRICATIN] | 4 | 0 | 70 | 84 | 7 | 0 | Non-toxic | 62 | 9 | Non-toxic | 27 | 92 | 45 | 8 |
